Reference: PMC6267478, “Heterologous Expression of a Thermostable β-1,3-Galactosidase and Its Potential in Synthesis of Galactooligosaccharides” (Marine Drugs, 2018)

Tested on: T1, rMaBGA (recombinant β-1,3-galactosidase MaBGA)
T1 construct: full-length ORF in pET-22b(+) NdeI/XhoI, 6xHis tag (C-terminal by vector and primer design), E. coli BL21(DE3), IMAC + SEC, 66 kDa on SDS-PAGE; primers imply N-terminus MKLGVCYY and native C-terminus AIWQEI before LE-His tag
Assay: ONP release at […] nm, nonlinear Michaelis-Menten fit
Format: biochemical, Marinomonas sp. BSi20414
Conditions: 50 mM PBS pH 7.0, 37 °C (general activity assay); 0.25-5 mM ONPG

SMILES: O=[N+]([O-])c1ccccc1O[C@@H]1O[C@H](CO)[C@H](O)[C@H](O)[C@H]1O [ONPG]
- Km: 6.85 mM
